Results on 17 compounds are retold here after patent publication US8318764B2, “Macrocyclic inhibitors of JAK” (Roche Palo Alto LLC, priority 2009, dated 2012).

T1 sequence (P52333 810-1124): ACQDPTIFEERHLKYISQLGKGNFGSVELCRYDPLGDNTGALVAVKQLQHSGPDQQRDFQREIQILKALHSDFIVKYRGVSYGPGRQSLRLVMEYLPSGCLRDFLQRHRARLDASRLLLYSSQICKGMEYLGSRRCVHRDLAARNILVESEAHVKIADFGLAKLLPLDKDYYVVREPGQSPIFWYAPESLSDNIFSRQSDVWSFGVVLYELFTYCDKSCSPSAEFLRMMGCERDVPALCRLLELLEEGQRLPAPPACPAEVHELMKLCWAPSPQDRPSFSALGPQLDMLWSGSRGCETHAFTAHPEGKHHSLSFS

This test has as its target T1, JAK3: Recombinant human kinase domain (810-1124) (Homo sapiens, UniProt P52333).
T1 construct: Recombinant human kinase domain (810-1124); made in house
Briefly: Determination of IC50 of Janus Kinase (JAK) inhibition, radioactive 33P-ATP end-point assay, JAK3. The following applies: 0.1 nM JAK3, ATP 1.5 uM, peptide 50 uM, 20 minutes, room temperature; read-out: JAK3 Enzyme IC50. In kind it is biochemical. As to the method:
Determination of IC50 of Janus Kinase (JAK) inhibition:
Enzymes and peptide substrate used are described below:
JAK3: Recombinant human kinase domain (810-1124) made in house by Roche Palo Alto
Substrate: N-terminally biotinylated 14-mer peptide derived from activation loop of JAK1 with sequence of the peptide substrate: Biotin-KAIETDKEYYTVKD
Assay conditions used are described below:
Assay Buffer: JAK Kinase Buffer: 50 mM Hepes [pH 7.2], 10 mM MgCl2, 1 mM DTT, 1 mg/ml BSA. The assay is carried out in this buffer.
Assay Format: The kinase activity of all three JAK kinases is measured using a radioactive, end-point assay and with trace amounts of ^33P-ATP. The assays are carried out in 96-well polypropylene plates.
All concentrations are final in the reaction mixture and all incubations are carried at room temperature. Assay steps are described below:
1) Compounds are serially diluted in 100% DMSO typically at a 10× starting concentration of 1 mM. Final concentration of DMSO in the reaction is 10%.
2) Compounds are preincubated with enzyme (0.1 nM JAK3, 1 nM JAK2, 5 nM JAK1) for 10 minutes.
3) Reactions are initiated by the addition of a cocktail of the two substrates (ATP and peptide premixed in the JAK Kinase Buffer). In the JAK1/JAK2/JAK3 assays, ATP and the peptide are used at concentrations of 1.5 uM and 50 uM, respectively. The duration of the assay for JAK2 and JAK3 is 20 minutes. JAK1 assay is carried out for 45 minutes. With all three enzymes, reactions are terminated by the addition of 0.5M EDTA to a final concentration of 100 mM. 4) 25 ul of terminated reactions are transferred to 150 ul of a 7.5% (v/v) slurry of streptavidin-coated sepharose beads in MgCl2- and CaCl2-free 1× Phosphate Buffered Saline containing 50 mM of EDTA in 96-well, 1.2 um MultiScreen-BV filter plates. 5) After a 30-minute incubation, the beads are washed under vacuum with the following buffers:
a. 3 to 4 washes with 200 ul of 2M NaCl.
b. 3 to 4 washes with 200 ul of 2M NaCl plus 1% (v/v) phosphoric acid.
6) Washed plates are dried in a 60° C. oven for between 1 to 2 hours.
7) 70 ul of Microscint 20 scintillation fluid is added to each well of filter plates and after at least 30 minutes of incubation, radioactive counts are measured in a Perkin Elmer microplate scintillation counter.
In the case of `CC1(C)CCCCOc2cccc(n2)Nc2n[nH]c3c2CN(C3)C1=O` [Compound I-8], the IC50 (as a rule, the concentration at which inhibition is half-maximal) stood at 1040 nM. The value for `CCC1(C)CCCCCCc2cccc(n2)Nc2n[nH]c3c2CN(C3)C1=O` (centres unmarked) [Compound I-1] was 915 nM; that for `CCC1(C)CCCCCc2cccc(n2)Nc2n[nH]c3c2CN(C3)C1=O` (centres unmarked) [Compound I-4] was 280 nM; that for `CC1CCc2cccc(n2)Nc2n[nH]c3c2CN(C3)C(=O)C(C)(C)CC1` (centres unmarked) [Compound I-11] was 487 nM.

Consider `CC1(C)CCCCc2cccc(n2)Nc2n[nH]c3c2CN(C3)C1=O` [Compound I-7], for which the half-inhibitory concentration (IC50) was 811 nM. To `CC12CCN(CCCc3cccc(n3)Nc3n[nH]c4c3CN(C4)C1=O)C2` (centres unmarked) [Compound I-13] belongs 92.8 nM. To `O=C1N2Cc3[nH]nc(c3C2)Nc2cccc(n2)CCCCCC12CCCC2` [Compound I-15] belongs 444 nM; to `CC12CCN(CCCCc3cccc(n3)Nc3n[nH]c4c3CN(C4)C1=O)C2` (centres unmarked) [Compound I-12], 42.6 nM.

For the compound `O=C1N2Cc3[nH]nc(c3C2)Nc2cccc(n2)CCCCCC12CCCCC2` [Compound I-14], the IC50 is 4210 nM.

For `CC1CCCCC(C)(C)C(=O)N2Cc3[nH]nc(c3C2)Nc2cccc1n2` (centres unmarked) [Compound I-2], the concentration for half-maximal inhibition (IC50) worked out at 795 nM.

With `O=C1N2Cc3[nH]nc(c3C2)Nc2cccc(n2)CCCCCC12CCOCC2` [Compound I-17], the IC50 was greater than 1000 nM. The value for `CC1(C)CCCOc2cccc(n2)Nc2n[nH]c3c2CN(C3)C1=O` [Compound I-9] was greater than 3000 nM; that for `CC1(C)CCCCCc2cc(ccn2)Nc2n[nH]c3c2CN(C3)C1=O` [Compound I-3] was greater than 10000 nM; that for `CC1(C)CCCCCc2cccc(n2)Nc2n[nH]c3c2CN(C3)C1=O` [Compound I-6] was 502 nM.

Regarding `CC1(c2ccccc2)CCCCCc2cccc(n2)Nc2n[nH]c3c2CN(C3)C1=O` (centres unmarked) [Compound I-16], the IC50 was greater than 1000 nM. To `CC1(C)CCCCCOc2cccc(n2)Nc2n[nH]c3c2CN(C3)C1=O` [Compound I-10] belongs 343 nM; to `CCC1(C)CCCCOc2cccc(n2)Nc2n[nH]c3c2CN(C3)C1=O` (centres unmarked) [Compound I-5], 530 nM.
